# From patent US20070197594A1, “Cyclic amine derivative or salt thereof” (ASTELLAS PHARMA INC., priority 2004, published 2007)
# Structures can show the parent of a compound that is named as a salt.
# Molecular target: NMDA receptor
# Assay: MK-801 binding test ([3H]MK-801-binding assay, rat membrane specimen)
# Conditions: NMDA receptor affinity, [3H]MK-801 4 nM in assay, Ki computed from IC50
# Procedure: 1) Preparation of Specimens of Rat Meninges:
# The whole brain was taken out from 10-week-age SD rats (30 heads, by Nippon SLC), and the cerebellum was removed from it. A 0.32 M sucrose solution was added to the part containing the cerebrum, cut in a mixer, and homogenized with a Teflon™ homogenizer. This was centrifuged at 2800 rpm and 4° C. for 15 minutes, and the resulting supernatant was again centrifuged at 15000 g and 4° C. for 20 minutes. The pellets were suspended in 50 mM Tris-HCL (pH 7.5) containing 0.08% Triton X-100, and kept statically on ice for 30 minutes, then centrifuged at 15000 g and 4° C. for 20 minutes. The pellets were suspended in 50 mM Tris-HCl (pH 7.5) added thereto, and centrifuged at 15000 g and 4° C. for 20 minutes. 50 mM Tris-HCl (pH 7.5) was again added to the pellets, and centrifuged in the same manner as before. The pellets were suspended in 20 ml of 50 mM Tris-HCl (pH 7.5) added thereto, and homogenized with a Teflon™ homogenizer. The membrane specimen was divided into small tubes and stored in a deep freezer (−80° C.). Before use, this washed twice with 5 mM Tris-HCl (pH 7.5) of five times that of the membrane specimen. Its concentration was controlled at 1 mg protein/ml with 5 mM Tris-HCl (pH 7.5) added to it, and this was used for assay.
# 50 μl of the rat membrane specimen (1 mg protein/ml) was added to a solution of a test compound dissolved in 1 μl of DMSO.
row,Compound,Ki [nM]
1,"CN1CCC(C2(O)c3ccccc3CC2(C)C)CC1 (stereo not shown) [Example 1, 2,2-Dimethyl-1-(1-methylpiperidin-4-yl)indan-1-ol monofumarate]",1400
2,"Cc1ccc2c(c1)C(O)(C1CCN(C)CC1)C(C)(C)C2 (stereo not shown) [Example 6, 2,2,6-trimethyl-1-(1-methylpiperidin-4-yl)indan-1-ol]",880
3,CN1CCC(C2(O)c3cc(F)ccc3CC2(C)C)CC1 (stereo not shown) [Example 9],930
4,CN1CCC(C2(O)c3ccc(Br)cc3CC2(C)C)CC1 (stereo not shown) [Example 15],860
5,CN1CCC(C2(O)c3cc(Cl)c(F)cc3CC2(C)C)CC1 (stereo not shown) [Example 28],1000
6,CN1CCC(C2(O)c3cc(Br)cc(F)c3CC2(C)C)CC1 (stereo not shown) [Example 32],440
7,CN1CCC(C2(O)c3c(ccc(F)c3Br)CC2(C)C)CC1 (stereo not shown) [Example 34],1800
8,CN1CCC(C2(O)c3c(Br)ccc(F)c3CC2(C)C)CC1 (stereo not shown) [Example 36],1900
9,COc1c(F)ccc2c1C(O)(C1CCN(C)CC1)C(C)(C)C2 (stereo not shown) [Example 44],930
10,CN1CCC(C2(O)c3ccccc3CCC2(C)C)CC1 (stereo not shown) [Example 53],4100
11,COc1ccc(F)c2c1C(O)(C1CCN(C)CC1)C(C)(C)C2 (stereo not shown) [Example 85],6200
12,CCOc1c(F)ccc2c1C(O)(C1CCN(C)CC1)C(C)(C)C2 (stereo not shown) [Example 98],8400
13,COc1cc(F)c2c(c1OC)C(O)(C1CCN(C)CC1)C(C)(C)C2 (stereo not shown) [Example 101],2100
14,COc1c(F)c(F)cc2c1C(O)(C1CCN(C)CC1)C(C)(C)C2 (stereo not shown) [Example 108],5600
15,COc1c(C#N)cc(F)c2c1C(O)(C1CCN(C)CC1)C(C)(C)C2 (stereo not shown) [Example 113],900
16,"Cc1ccc2c(c1)C(O)(CC(C)(C)N)C(C)(C)C2 (stereo not shown) [Example 131, 1-(2-Amino-2-methylpropyl)-2,2,6-trimethylindan-1-ol fumarate]",4800
17,"CN1CCC(C2(O)c3c(c(F)cc4c3OCC4)CC2(C)C)CC1 (stereo not shown) [Example 139, 5-Fluoro-7,7-dimethyl-8-(1-methylpiperidin-4-yl)-2,6,7,8-tetrahydro-2H-indeno[4,5-b]furan-8-ol fumarate]",5000
18,"CN1CCC(C23OCCOc4c(F)ccc(c42)CC3(C)C)CC1 (stereo not shown) [Example 143, 4-(9-Fluoro-5,5-dimethyl-2,3,5,6-tetrahydro-4aH-indeno[1,7-ef][1,4]dioxepin-4a-yl-1-methylpiperidine fumarate]",700
19,COc1c(F)ccc2c1C1(CCC(CN3CCCC3)O1)C(C)(C)C2 (stereo not shown) [Example 145],8400
